# Data taken from US20100298141A1, “SUBSTITUTED PYRIDINE N-OXIDE HERBICIDES” (E. I. DU PONT DE NEMOURS AND COMPANY, priority 2007, published 2010).
# How the values were obtained:
# redroot pigweed = assay: Test A pre-/postemergence greenhouse test; format: in vivo, Amaranthus retroflexus; settings: for Pigweed plant response rating: 0 to 100 scale
# How it was run: (§1)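 Each test compound, dissolved in a non-phytotoxic solvent mixture with surfactant, was sprayed directly onto seeded soil (loam/sand blend) and, at the same moment, onto seedlings carrying one to two leaves. Around ten greenhouse days later, plants were rated visually for injury relative to untreated controls.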
# corn = assay: Test A pre-/postemergence greenhouse test; format: in vivo, Zea mays; settings: for Corn plant response rating: 0 to 100 scale
# How it was run: as §1
# blackgrass = assay: Test C pre-/postemergence test; format: in vivo, Alopecurus myosuroides
# How it was run: (§2)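 Seeds were planted and treated preemergence with test chemical in a non-phytotoxic solvent mixture containing surfactant. Postemergence applications of the same formulation went onto plants 2 to 18 cm tall (1- to 4-leaf stage). A dash marks no test result.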
# wheat = assay: Test C pre-/postemergence test; format: in vivo, Triticum aestivum; settings: Preemergence
# How it was run: as §2
# wild oat = assay: Test C pre-/postemergence test; format: in vivo, Avena fatua; settings: Preemergence
# How it was run: as §2
# catchweed bedstraw = assay: Test C pre-/postemergence test; format: in vivo, Galium aparine; settings: Preemergence
# How it was run: as §2
# bermudagrass = assay: Test C pre-/postemergence test; format: in vivo, Cynodon dactylon
# How it was run: as §2
# Surinam grass = assay: Test C pre-/postemergence test; format: in vivo, Brachiaria decumbens; settings: Preemergence
# How it was run: as §2
# crabgrass = assay: Test C pre-/postemergence test; format: in vivo, Digitaria sanguinalis; settings: Preemergence
# How it was run: as §2
# kochia = assay: Test C pre-/postemergence test; format: in vivo, Kochia scoparia; settings: Preemergence
# How it was run: as §2
# eastern black nightshade = assay: Test C pre-/postemergence test; format: in vivo, Solanum ptycanthum; settings: Preemergence
# How it was run: as §2
# pigweed = assay: Test C pre-/postemergence test; format: in vivo, Amaranthus retroflexus; settings: Preemergence
# How it was run: as §2
# [1] = tested on: common (oilseed) sunflower; assay: Test C pre-/postemergence test; format: in vivo, Helianthus annuus; settings: Preemergence
# How it was run: as §2
# velvetleaf = assay: Test C pre-/postemergence test; format: in vivo, Abutilon theophrasti; settings: Preemergence
# How it was run: as §2
# rice = assay: Test C flooded paddy test; format: in vivo, Oryza sativa; settings: Flood
# How it was run: (§3)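 In-water treatment: compound dosed into 3 cm flood over soil, water level unchanged throughout. Controls run alongside; visual assessment at day 13–15.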
# duck salad = assay: Test C flooded paddy test; format: in vivo, Heteranthera limosa; settings: Flood
# How it was run: as §3
# barnyardgrass = assay: Test C flooded paddy test; format: in vivo, Echinochloa crus-galli; settings: Flood
# How it was run: as §3
# [2] = Postemergence, 125 g ai/ha, 0 is no effect, 100 is complete control
# [3] = Postemergence, 500 g ai/ha, 0 is no effect, 100 is complete control
# [4] = Preemergence, 125 g ai/ha, 0 no effect, 100 complete control
# [5] = Preemergence, 500 g ai/ha, 0 to 100 scale where 0 is no effect and 100 is complete control
# [6] = Preemergence, 31 g ai/ha, scale 0 to 100 (0 no effect, 100 complete control)
# [7] = preemergence, 125 g ai/ha, scale 0 (no effect) to 100 (complete control)
# [8] = 31 g ai/ha, scale 0 to 100 (0 no effect, 100 complete control)
# [9] = 62 g ai/ha, scale 0 to 100, 0 no effect, 100 complete control, 13 to 15 days
# [10] = 125 g ai/ha, scale 0 to 100, 0 no effect, 100 complete control, 13 to 15 days
# [11] = 250 g ai/ha, scale 0 to 100 (0 no effect, 100 complete control)
structure (smiles),measurement,setting,value
Cc1cc[n+]([O-])c([S+]([O-])Cc2c(C(F)(F)F)nn(C)c2Cl)c1 (racemic) [Compound 20],Pigweed plant response rating,redroot pigweed; [2],40
same,Pigweed plant response rating,redroot pigweed; [3],70
same,Pigweed plant response rating,redroot pigweed; [4],90
same,"Plant response rating, Pigweed",redroot pigweed; [5],100
same,Corn plant response rating,corn; [2],0
same,Corn plant response rating,corn; [3],70
same,Corn plant response rating,corn; [4],30
same,"Plant response rating, Corn",corn; [5],60
same,Blackgrass plant response rating,"blackgrass; 62 g ai/ha, Preemergence, scale 0 to 100",98
same,"Plant response rating, Blackgrass",blackgrass; [6],70
same,"Plant response rating (0 to 100), Blackgrass","blackgrass; Preemergence, 250 g ai/ha",100
same,Blackgrass plant response rating,blackgrass; [7],100
same,Wheat plant response rating,"wheat; 62 g ai/ha, scale 0 to 100",70
same,"Plant response rating, Wheat",wheat; [8],0
same,"Oat, Wild plant response rating","wild oat; 62 g ai/ha, scale 0 to 100",10
same,"Plant response rating, Oat, Wild",wild oat; [8],0
same,Galium plant response rating,"catchweed bedstraw; 62 g ai/ha, scale 0 to 100",85
same,"Plant response rating, Galium",catchweed bedstraw; [8],80
same,"Plant response rating (0 to 100), Galium",catchweed bedstraw; 250 g ai/ha,100
same,Bermudagrass plant response rating,"bermudagrass; 62 g ai/ha, Preemergence, scale 0 to 100 (0 no effect, 100 complete control)",85
same,"Plant response rating, Bermudagrass",bermudagrass; [6],55
same,"Plant response rating (0 to 100), Bermudagrass","bermudagrass; Preemergence, 250 g ai/ha",100
same,Bermudagrass plant response rating,bermudagrass; [7],100
same,Surinam Grass plant response rating,"Surinam grass; 62 g ai/ha, scale 0 to 100",70
same,"Plant response rating, Surinam Grass",Surinam grass; [8],0
same,"Crabgrass, Large plant response rating","crabgrass; 62 g ai/ha, scale 0 to 100",100
same,"Plant response rating, Crabgrass, Large",crabgrass; [8],85
same,"Plant response rating (0 to 100), Crabgrass, Large",crabgrass; 250 g ai/ha,100
same,Kochia plant response rating,"kochia; 62 g ai/ha, scale 0 to 100",100
same,"Plant response rating, Kochia",kochia; [8],0
same,Nightshade plant response rating,"eastern black nightshade; 62 g ai/ha, scale 0 to 100",85
same,"Plant response rating, Nightshade",eastern black nightshade; [8],80
same,Pigweed plant response rating,"pigweed; 62 g ai/ha, scale 0 to 100",100
same,"Plant response rating, Pigweed",pigweed; [8],80
same,Sunflower plant response rating,"[1]; 62 g ai/ha, scale 0 to 100",0
same,"Plant response rating, Sunflower",[1]; [8],0
same,Velvetleaf plant response rating,"velvetleaf; 62 g ai/ha, scale 0 to 100",5
same,"Plant response rating, Velvetleaf",velvetleaf; [8],0
same,"Plant response rating, Rice",rice; [8],0
same,"Plant response rating, Rice",rice; [9],0
same,"Plant response rating, Rice",rice; [10],0
same,"Plant response rating, Rice",rice; [11],30
same,"Plant response rating, Ducksalad",duck salad; [8],0
same,"Plant response rating, Ducksalad",duck salad; [9],0
same,"Plant response rating, Ducksalad",duck salad; [10],0
same,"Plant response rating, Ducksalad",duck salad; [11],75
same,"Plant response rating, Barnyardgrass",barnyardgrass; [8],0
same,"Plant response rating, Barnyardgrass",barnyardgrass; [9],0
same,"Plant response rating, Barnyardgrass",barnyardgrass; [10],30
same,"Plant response rating, Barnyardgrass",barnyardgrass; [11],70
